The values below are quoted from earlier work in patent US11667615B2, “Certain (2S)-N-[(1S)-1-cyano-2-phenylethyl]-1,4-oxazepane-2-carboxamides as dipeptidyl peptidase 1 inhibitors” (AstraZeneca AB, priority 2014, dated 2023).

The structures appear in SMILES notation.

For this series the following is noted: QWBA studies; concomitant ultra-structural changes by electron microscopy.

For `CC(c1ccc(Cl)c(Cl)c1)N1N=C(N)CC1=O` (stereo not shown) [muzolimine], the “retention in the aorta” value is on record as “retained selectively in the aorta”.
